Measurements taken from ChEMBL document CHEMBL3751688, “Synthesis, in vitro antimycobacterial evaluation and docking studies of some new 5,6,7,8-tetrahydropyrido[4',3':4,5]thieno[2,3-d]pyrimidin-4(3H)-one schiff bases” (Bioorg Med Chem Lett, 2016).
In brackets after ≈: the same amount, converted by molar mass.

What was measured:
Assay type in all cases: functional
Staphylococcus aureus = assay: Antibacterial activity against Staphylococcus aureus MTCC 96 after 24 hrs by broth microdilution technique; details: MTCC 96, 24 h
Bacillus subtilis = assay: Antibacterial activity against Bacillus subtilis MTCC 441 after 24 hrs by broth microdilution technique; details: MTCC 441, 24 h
Escherichia coli = assay: Antibacterial activity against Escherichia coli MTCC 443 after 24 hrs by broth microdilution technique; details: MTCC 443, 24 h
Klebsiella pneumoniae = assay: Antibacterial activity against Klebsiella pneumoniae MTCC 109 after 24 hrs by broth microdilution technique; details: MTCC 109, 24 h
[1] = test system: Mycobacterium tuberculosis; assay: Antimycobacterial activity against Mycobacterium tuberculosis H37Rv at 111 uM after 3 days by luciferase reporter phage assay; details: 72 h
[2] = test system: Mycobacterium tuberculosis; assay: Antimycobacterial activity against Mycobacterium tuberculosis H37Rv at 223 uM after 3 days by luciferase reporter phage assay; details: 72 h
[3] = test system: Mycobacterium tuberculosis; assay: Antimycobacterial activity against Mycobacterium tuberculosis H37Rv at 446 uM after 3 days by luciferase reporter phage assay; details: 72 h
[4] = test system: Mycobacterium tuberculosis; assay: Antimycobacterial activity against Mycobacterium tuberculosis H37Rv after 14 days by broth microdilution method; details: 336 h
[5] = test system: Mycobacterium tuberculosis; assay: Antimycobacterial activity against Mycobacterium tuberculosis H37Rv after 21 days by broth microdilution method; details: 504 h
[6] = test system: Mycobacterium tuberculosis; assay: Antimycobacterial activity against Mycobacterium tuberculosis H37Rv at 116 uM after 3 days by luciferase reporter phage assay; details: 72 h
[7] = test system: Mycobacterium tuberculosis; assay: Antimycobacterial activity against Mycobacterium tuberculosis H37Rv at 232 uM after 3 days by luciferase reporter phage assay; details: 72 h
[8] = test system: Mycobacterium tuberculosis; assay: Antimycobacterial activity against Mycobacterium tuberculosis H37Rv at 465 uM after 3 days by luciferase reporter phage assay; details: 72 h
[9] = test system: Mycobacterium tuberculosis; assay: Antimycobacterial activity against Mycobacterium tuberculosis H37Rv at 123 uM after 3 days by luciferase reporter phage assay; details: 72 h
[10] = test system: Mycobacterium tuberculosis; assay: Antimycobacterial activity against Mycobacterium tuberculosis H37Rv at 246 uM after 3 days by luciferase reporter phage assay; details: 72 h
[11] = test system: Mycobacterium tuberculosis; assay: Antimycobacterial activity against Mycobacterium tuberculosis H37Rv at 492 uM after 3 days by luciferase reporter phage assay; details: 72 h

Row | SMILES | MIC (Staphylococcus aureus) [µM] | MIC (Bacillus subtilis) [µM] | MIC (Escherichia coli) [µM] | MIC (Klebsiella pneumoniae) [µM] | MIC [4] [µM] | MIC [5] [µM] | other results
1 | Cc1nc2sc3c(c2c(=O)n1/N=C/c1ccc(O)cc1)CCN(Cc1ccccc1)C3 | 144 (≈ 62 µg/mL) | 144 (≈ 62 µg/mL) | 144 (≈ 62 µg/mL) | 144 (≈ 62 µg/mL) |  |  | 
2 | Cc1nc2sc3c(c2c(=O)n1/N=C/c1ccc(Cl)cc1)CCN(Cc1ccccc1)C3 | 33 (≈ 14.8 µg/mL) | 33 (≈ 14.8 µg/mL) | 15 (≈ 6.73 µg/mL) | 69 (≈ 31 µg/mL) | 8 (≈ 3.59 µg/mL) | 8 (≈ 3.59 µg/mL) | inhibition at 111 µM [1]: 29.6%; inhibition at 223 µM [2]: 40.8%; inhibition at 446 µM [3]: 99.8%
3 | COc1ccc(/C=N/n2cnc3sc4c(c3c2=O)CCN(Cc2ccccc2)C4)cc1 | 34 (≈ 14.6 µg/mL) | 34 (≈ 14.6 µg/mL) | 16 (≈ 6.89 µg/mL) | 72 (≈ 31 µg/mL) | 20 (≈ 8.61 µg/mL) | 20 (≈ 8.61 µg/mL) | inhibition at 116 µM [6]: 0%; inhibition at 232 µM [7]: 15%; inhibition at 465 µM [8]: 16.9%
4 | Cc1nc2sc3c(c2c(=O)n1/N=C/c1ccc(F)cc1)CCN(Cc1ccccc1)C3 | 71 (≈ 30.7 µg/mL) | 71 (≈ 30.7 µg/mL) | 71 (≈ 30.7 µg/mL) | 71 (≈ 30.7 µg/mL) |  |  | 
5 | Cc1nc2sc3c(c2c(=O)n1/N=C/c1ccc(Cl)cc1Cl)CCN(Cc1ccccc1)C3 | 64 (≈ 30.9 µg/mL) | 15 (≈ 7.25 µg/mL) | 64 (≈ 30.9 µg/mL) | 64 (≈ 30.9 µg/mL) |  |  | 
6 | O=c1c2c3c(sc2ncn1/N=C/c1ccc(Cl)cc1Cl)CN(Cc1ccccc1)CC3 | 66 (≈ 31 µg/mL) | 32 (≈ 15 µg/mL) | 66 (≈ 31 µg/mL) | 66 (≈ 31 µg/mL) |  |  | 
7 | Cc1nc2sc3c(c2c(=O)n1/N=C/c1ccco1)CCN(Cc1ccccc1)C3 | 309 (≈ 125 µg/mL) | 309 (≈ 125 µg/mL) | 309 (≈ 125 µg/mL) | 153 (≈ 61.9 µg/mL) |  |  | 
8 | O=c1c2c3c(sc2ncn1/N=C/c1cccs1)CN(Cc1ccccc1)CC3 | 36 (≈ 14.6 µg/mL) | 150 (≈ 61 µg/mL) | 150 (≈ 61 µg/mL) | 150 (≈ 61 µg/mL) | 22 (≈ 8.94 µg/mL) | 22 (≈ 8.94 µg/mL) | inhibition at 123 µM [9]: 0%; inhibition at 246 µM [10]: 0%; inhibition at 492 µM [11]: 0%
9 | COc1cc(/C=N/n2cnc3sc4c(c3c2=O)CCN(Cc2ccccc2)C4)cc(OC)c1OC | 255 (≈ 125 µg/mL) | 255 (≈ 125 µg/mL) | 255 (≈ 125 µg/mL) | 255 (≈ 125 µg/mL) |  |  | 
10 | O=c1c2c3c(sc2ncn1/N=C/c1ccco1)CN(Cc1ccccc1)CC3 | 158 (≈ 61.7 µg/mL) | 158 (≈ 61.7 µg/mL) | 158 (≈ 61.7 µg/mL) | 158 (≈ 61.7 µg/mL) |  |  | 
11 | CC[C@@H](CO)NCCN[C@@H](CC)CO [ETHAMBUTOL] |  |  |  |  | 4 (≈ 0.817 µg/mL) | 4 (≈ 0.817 µg/mL) | 
12 | NNC(=O)c1ccncc1 [ISONIAZID] |  |  |  |  | 0.28 (≈ 0.0384 µg/mL) | 0.28 (≈ 0.0384 µg/mL) | 
13 | CO[C@H]1/C=C/O[C@@]2(C)Oc3c(C)c(O)c4c(O)c(c(/C=N/N5CCN(C)CC5)c(O)c4c3C2=O)NC(=O)/C(C)=C\C=C\[C@H](C)[C@H](O)[C@@H](C)[C@@H](O)[C@@H](C)[C@H](OC(C)=O)[C@@H]1C [RIFAMPIN] |  |  |  |  | 0.09 (≈ 0.0741 µg/mL) | 0.09 (≈ 0.0741 µg/mL) | 
14 | CN[C@@H]1[C@H](O[C@H]2[C@H](O[C@H]3[C@H](O)[C@@H](O)[C@H](N=C(N)N)[C@@H](O)[C@@H]3N=C(N)N)O[C@@H](C)[C@]2(O)C=O)O[C@@H](CO)[C@H](O)[C@H]1O [STREPTOMYCIN] | < 1 | < 1 | < 1 | < 1 | 2 (≈ 1.16 µg/mL) | 2 (≈ 1.16 µg/mL) | 
